# Laboratory results as given in patent US8715959B2, “Substitution mutant receptors and their use in a nuclear receptor-based inducible gene expression system” (priority 2001, dated 2014).
# Assays:
# [1] = test system: A110P mutant CfEcR; experiment: In vitro ligand binding assay with 3H-RH2485 and cold competitors, full-length A110P mutant (FIG. 1); design: species or system Choristoneura fumiferana; settings: cold ligand as competitor of 3H-RH2485
# Protocol: (§1) Applicants tested the A110P mutant CfEcR receptor in a steroid and non-steroid ligand binding assay to confirm that steroid binding was eliminated. Briefly, PonA binding activity was determined using an in vitro ligand binding assay (LBA). Steroid ligand binding assay (LBA) was performed using ^3H-PonA (200 Ci/mmol). In vitro translated Gal4/wild-type or A110P mutant CfEcR-DEF and bacterial expressed GST-CfUSP-A/BCDEF were used in the assay. The assay was performed with 8 μL of Gal4/wild-type or A110P mutant CfEcR-DEF, 2.5 uL of GST-CfUSP-A/BCDEF, 1 μL of ^3H-PonA, and 2 μL of unlabeled (“cold”) PonA as competitor in the presence of T buffer [90 mM Tris pH 8.0, 10 μM DTT comprising Complete™ protease inhibitor cocktail used according to the manufacturer's instructions (Boehringer Mannheim)]. The reaction was carried out at room temperature for 1 hour followed by the addition of dextran-coated charcoal (Sigma). The mixture was centrifuged at 7000×g for 10 minutes the amount of ^3H-PonA in the supernatant was measured. The reactions were done in triplicate. The full-length WT EcR or its A110P mutant were also in vitro translated and transcribed using the TNT system (Promega) according to the manufacturer's instructions and tested in in vitro ligand binding assays using 3H-RH2485, with cold 20E or non-steroids (RH2485 and GS™-E) as competitors. In addition, 5 μL of the in vitro translations were assayed for translation efficiency using SDS-PAGE following standard methods (Maniatis, 1989). The ligand binding results for both the wild-type and A110P mutant CfEcR-DEF receptors were calculated and are shown in FIG. 1.
# [2] = test system: WT full-length EcR; experiment: In vitro ligand binding assay with 3H-RH2485 and cold competitors, full-length WT EcR (FIG. 1); design: species or system Choristoneura fumiferana; settings: cold ligand as competitor
# Protocol: as §1
# [3] = target: T1, wild-type CfEcR-A/BCDEF (Choristoneura fumiferana, UniProt O77240); experiment: 3H-RH2485 competition ligand binding, wild-type CfEcR-A/BCDEF with CfUSP
# T1 construct: "The full-length spruce budworm Choristoneura fumiferana EcR (“CfEcR-A/BCDEF”); b350 and b353 describe plain full-length EcR translated in vitro
# [4] = target: A110P mutant CfEcR-A/BCDEF (Choristoneura fumiferana, UniProt O77255, A393P); experiment: 3H-RH2485 competition ligand binding, A110P mutant CfEcR-A/BCDEF with CfUSP
# Protocol: The ligand binding affinities of the A110P GAL4/CfEcR mutant were measured by binding ^3H-RH2485 and competing it with different concentrations of cold steroids or non-steroids. Briefly, 3H-RH2485 was bound to in vitro translated full-length CfEcR and bacterially expressed CfUSP and competed with increasing concentrations of cold steroidal or non-steroidal ligands. The reaction was carried out at room temperature for 1 hour followed by addition of activated dextran coated charcoal and centrifugation at 7000×g for 10 minutes at 4° C. The residual ^3H-RH2485 in the supernatant after centrifugation was measured using a scintillation counter. The fraction bound (f bound) values were determined and plotted against the concentration of ligand (in mM).
# [5] = test system: CfEcR-DEF; experiment: GAL4 fusions of A110 mutants of CfEcR-DEF, reporter transactivation in NIH3T3 cells (FIG. 4); assay type: cell-based, Choristoneura fumiferana; settings: 0.04-25 μM GS™-E or RH-125020, 48 hours
# Protocol: Four mutations: A110S, A110P, A110L, and A110M were obtained. These four mutant and wild-type receptors were assayed in NIH3T3 cells.
# [6] = test system: DmEcR-CDEF; experiment: VP16/DmEcR-CDEF wild-type and mutants, 6xEcRE β-gal reporter transactivation in insect L57 cells; assay type: cell-based, Drosophila melanogaster
# Protocol: The wild-type and mutant DmEcR-CDEF receptors were also used to make VP16/wild-type or mutantDmEcR-CDEF constructs as described in Example 1.10 and 1.11. VP16DmEcR-CDEF and a 6×EcREβ-gal reporter were transfected into L57 cells and the transfected cells were treated with 1 uM 20-hydroxyecdysone (20E) or GS™-E. The cells were harvested, lysed and the reporter activity was measured as described above in Example 6. The fold induction was calculated by dividing reporter activity in the presence of ligand with the reporter activity in the absence of ligand. From the fold induction, percent wild-type activity was calculated for each mutant.
# [7] = test system: DmEcR-CDEF; experiment: GAL4/DmEcR-CDEF wild-type and mutants, luciferase reporter transactivation in NIH3T3 cells; assay type: cell-based, Drosophila melanogaster; settings: GAL4/DmEcR-CDEF + VP16/LmUSP-EF + pFRLUC, 48 hours
# Protocol: DNAs corresponding to the various switch constructs outlined in Example 1, specifically switches 1.1-1.2, were transfected into mouse NIH3T3 cells (ATCC) as follows. […] Two μl of Superfect™ was mixed with 100 μl of growth medium and 50 ng of either GAL4/wild-type EcR or Gal4/mutant EcR cassette, 50 ng of VP16/LmUSP-EF and 200 ng of pFRLuc were added to the transfection mix. […] The cells were harvested and reporter activity was assayed as described above.
# Applicants mutated amino acid residues predicted to be critical for ecdysteroid binding and created GAL4/mutantDmEcR-CDEF cDNA gene expression cassettes as described in Example 1 above using PCR-mediated site-directed mutagenesis. The mutated and the WT cDNAs corresponding to the various switch constructs outlined above in Examples 1.8 and 1.9 were made and tested in reporter assays in NIH3T3 cells as described in Example 2. Each GAL4/DmEcR-CDEF construct, VP16/LmUSP-EF, and pFRLUC were transfected into NIH3T3 cells and the transfected cells were treated with 2.5 μM GS-™E or Ponasterone A. The cells were harvested and the reporter activity was measured at 48 hours after addition of ligand. The fold induction was calculated by dividing reporter activity in the presence of ligand with the reporter activity in the absence of ligand. From the fold induction, percent wild-type activity was calculated for each mutant.
# Sequence of A110P mutant CfEcR-A/BCDEF (O77255 entry or part of it A393P): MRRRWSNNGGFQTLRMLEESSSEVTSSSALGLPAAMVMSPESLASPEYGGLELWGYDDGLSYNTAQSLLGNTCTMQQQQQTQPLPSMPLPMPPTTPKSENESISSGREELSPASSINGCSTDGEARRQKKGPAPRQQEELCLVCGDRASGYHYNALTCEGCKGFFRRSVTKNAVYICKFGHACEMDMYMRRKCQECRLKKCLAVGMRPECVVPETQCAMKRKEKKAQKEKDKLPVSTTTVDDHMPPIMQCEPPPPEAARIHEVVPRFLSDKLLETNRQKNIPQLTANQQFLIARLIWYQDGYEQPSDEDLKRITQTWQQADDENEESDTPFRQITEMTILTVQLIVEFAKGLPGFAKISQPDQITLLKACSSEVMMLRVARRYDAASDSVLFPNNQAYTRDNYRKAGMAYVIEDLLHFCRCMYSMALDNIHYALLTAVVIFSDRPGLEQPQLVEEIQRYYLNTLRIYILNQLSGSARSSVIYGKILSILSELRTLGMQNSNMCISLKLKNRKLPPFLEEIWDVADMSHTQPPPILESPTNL
# Sequence of A110P mutant CfEcR-A/BCDEF (O76202 whole entry, further chain, the tested form may be a part): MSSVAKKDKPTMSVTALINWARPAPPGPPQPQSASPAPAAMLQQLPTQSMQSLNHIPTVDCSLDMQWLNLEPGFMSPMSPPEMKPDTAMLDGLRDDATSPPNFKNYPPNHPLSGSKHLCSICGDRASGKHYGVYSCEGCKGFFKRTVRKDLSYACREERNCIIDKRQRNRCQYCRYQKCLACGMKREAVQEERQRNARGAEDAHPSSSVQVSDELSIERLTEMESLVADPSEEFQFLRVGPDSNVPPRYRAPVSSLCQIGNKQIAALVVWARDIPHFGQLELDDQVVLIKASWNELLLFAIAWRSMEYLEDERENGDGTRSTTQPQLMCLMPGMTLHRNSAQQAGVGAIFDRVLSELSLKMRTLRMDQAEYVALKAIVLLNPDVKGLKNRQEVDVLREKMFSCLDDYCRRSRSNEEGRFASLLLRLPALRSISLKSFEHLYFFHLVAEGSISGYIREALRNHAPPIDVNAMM
molecule,measurement,setting,value
"CC(C)(O)CC[C@@H](O)[C@](C)(O)[C@H]1CC[C@@]2(O)C3=CC(=O)[C@@H]4C[C@@H](O)[C@@H](O)C[C@]4(C)[C@H]3CC[C@]12C [Mutant 20E, 20-hydroxyecdysone]",binding of ligand by the A110P mutant,[1],completely disrupted
same,competition with bound 3H-RH2485 (binding to WT full-length EcR),[2],able to effectively compete
"CC(C)CC[C@@H](O)[C@](C)(O)[C@H]1CC[C@@]2(O)C3=CC(=O)[C@@H]4C[C@@H](O)[C@@H](O)C[C@]4(C)[C@H]3CC[C@]12C [Ponasterone A, ponasterone A]",IC50,[3],0.346 µM
same,IC50,[4],> 1000 µM
"COc1cccc(C(=O)NN(C(=O)c2cc(C)cc(C)c2)C(C)(C)C)c1C [RH-2485, N′-tert-butyl-N′-(3,5-dimethylbenzoyl)-3-methoxy-2-methylbenzohydrazide]",IC50,[3],1.8 µM
same,binding of ligand by the A110P mutant,[1],unaffected
same,competition with bound 3H-RH2485 (binding to WT full-length EcR),[2],able to effectively compete
same,IC50,[4],0.35 µM
"Cc1cc(C)cc(C(=O)N(NC(=O)c2ccc3c(c2C)OCCO3)C(C)(C)C)c1 [RH-125020, N′-tert-butyl-N′-(3,5-dimethylbenzoyl)-3,4-(1,2-ethylenedioxy)-2-methylbenzohydrazide]",IC50,[3],0.0101 µM
same,IC50,[4],0.0257 µM
"CCc1c(OC)cccc1C(=O)NN(C(=O)c1cc(C)cc(C)c1)C(C)(C)C [GS ™-E, N-(2-ethyl-3-methoxybenzoyl)-N′-(3,5-dimethylbenzoyl)-N′-tert-butylhydrazine]",IC50,[3],0.0853 µM
same,binding of ligand by the A110P mutant,[1],unaffected
same,competition with bound 3H-RH2485 (binding to WT full-length EcR),[2],able to effectively compete
same,IC50,[4],0.0129 µM
CCc1ccc(C(=O)NN(C(=O)c2cc(C)cc(C)c2)C(C)(C)C)cc1 [RH-5992],IC50,[3],0.133 µM
same,IC50,[4],0.322 µM
"CC(C)CC[C@@H](O)[C@](C)(O)[C@H]1CC[C@@]2(O)C3=CC(=O)[C@]4(O)C[C@@H](O)[C@@H](O)C[C@]4(C)[C@H]3[C@H](O)C[C@]12C [Muristerone A, muristeroneA]",IC50,[3],0.424 µM
same,IC50,[4],> 1000 µM
"A110S: CfEcR-DEF LBD substitution mutant, Alanine (A) to Serine (S) (protein, listed as Choristoneura fumiferana) LTANQQFLIARLIWYQDGYEQPSDEDLKRITQTWQQADDENEESDTPFRQITEMTILTVQLIVEFAKGLPGFAKISQPDQITLLKACSSEVMMLRVARRYDAASDSVLFSNNQAYTRDNYRKAGMAYVIEDLLHFCRCMYSMALDNIHYALLTAVVIFSDRPGLEQPQLVEEIQRYYLNTLRIYILNQLSGSARSSVIYGKILSILSELRTLGMQNSNMCISLKLKNRKLPPFLEEIWDV",non-steroid reporter activity compared to wild-type receptor,[5],lower sensitivity and no detectable transactivation at the two lowest concentrations
"A110L: CfEcR-DEF LBD substitution mutant, Alanine (A) to Leucine (L) (protein, listed as Choristoneura fumiferana) LTANQQFLIARLIWYQDGYEQPSDEDLKRITQTWQQADDENEESDTPFRQITEMTILTVQLIVEFAKGLPGFAKISQPDQITLLKACSSEVMMLRVARRYDAASDSVLFLNNQAYTRDNYRKAGMAYVIEDLLHFCRCMYSMALDNIHYALLTAVVIFSDRPGLEQPQLVEEIQRYYLNTLRIYILNQLSGSARSSVIYGKILSILSELRTLGMQNSNMCISLKLKNRKLPPFLEEIWDV",non-steroid reporter activity compared to wild-type receptor,[5],lower sensitivity and no detectable transactivation at the two lowest concentrations
"A110M: CfEcR-DEF LBD substitution mutant, Alanine (A) to Methionine (M) (protein, listed as Choristoneura fumiferana) LTANQQFLIARLIWYQDGYEQPSDEDLKRITQTWQQADDENEESDTPFRQITEMTILTVQLIVEFAKGLPGFAKISQPDQITLLKACSSEVMMLRVARRYDAASDSVLFMNNQAYTRDNYRKAGMAYVIEDLLHFCRCMYSMALDNIHYALLTAVVIFSDRPGLEQPQLVEEIQRYYLNTLRIYILNQLSGSARSSVIYGKILSILSELRTLGMQNSNMCISLKLKNRKLPPFLEEIWDV",non-steroid reporter activity compared to wild-type receptor,[5],lower sensitivity and no detectable transactivation at the two lowest concentrations
"G121L: DmEcR-CDEF LBD substitution mutant, Glycine (G) to Leucine (L) (protein, Drosophila melanogaster) LTYNQLAVIYKLIWYQDGYEQPSEEDLRRIMSQPDENESQTDVSFRHITEITILTVQLIVEFAKGLPAFTKIPQEDQITLLKACSSEVMMLRMARRYDHSSDSIFFANNRSYTRDSYKMALMADNIEDLLHFCRQMFSMKVDNVEYALLTAIVIFSDRPGLEKAQLVEAIQSYYIDTLRIYILNRHCGDSMSLVFYAKLLSILTELRTLGNQNAEMCFSLKLKNRKLPKFLEEIWDV","Fold increase over WT, 1 μM 20-hydroxyecdysone","[6]; 1 μM 20-hydroxyecdysone, VP16/DmEcR-CDEF",0.09 fold
same,"Fold increase over WT, 1 μM GS™-E","[6]; 1 μM GS™-E, VP16/DmEcR-CDEF",0.15 fold
same,steroid activity (summary of Table 14),"[6]; 20E, DmEcR mutants",lost sensitivity
same,non-steroid activity (summary of Table 14),"[6]; GS™-E, DmEcR mutants",lost sensitivity
same,"Fold increase over WT, 2.5 μM GS™-E",[7]; 2.5 μM GS™-E,0.008 fold
same,"Fold increase over WT, 2.5 μM Ponasterone A",[7]; 2.5 μM Ponasterone A,0.001 fold
